Assays:
catchweed bedstraw = assay: Test C pre-/postemergence test; assay type: in vivo, Galium aparine; conditions: Preemergence; for Galium plant response rating: 62 g ai/ha, scale 0 to 100; for Plant response rating, Galium: 31 g ai/ha, scale 0 to 100 (0 no effect, 100 complete control); for Plant response rating (0 to 100), Galium: 250 g ai/ha
In short: (§1)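 Compounds in a non-phytotoxic solvent with surfactant applied preemergence to seeded pots and, at the same time, postemergence to plants 2–18 cm tall (1- to 4-leaf stage). Paddy tests: pots flooded to 3 cm, compound applied into the water, depth held throughout.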

morningglory [1] = assay: Test C pre-/postemergence test; assay type: in vivo, Ipomoea coccinea; conditions: Preemergence; for Morningglory plant response rating: 62 g ai/ha, scale 0 to 100
In short: as §1

yellow nutsedge = assay: Test C pre-/postemergence test; assay type: in vivo, Cyperus esculentus; conditions: Preemergence; for Nutsedge, Yellow plant response rating: 62 g ai/ha, scale 0 to 100; for Plant response rating, Nutsedge, Yellow: 31 g ai/ha, scale 0 to 100 (0 no effect, 100 complete control)
In short: as §1

Goosegrass = assay: Test C pre-/postemergence test; assay type: in vivo, Eleusin indica; conditions: Preemergence; for Goosegrass plant response rating: 62 g ai/ha, scale 0 to 100; for Plant response rating, Goosegrass: 31 g ai/ha, scale 0 to 100 (0 no effect, 100 complete control); for Plant response rating (0 to 100), Goosegrass: 250 g ai/ha
In short: as §1

wheat [2] = assay: Test A pre-/postemergence greenhouse test; assay type: in vivo, Triticum aestivum; conditions: for Wheat plant response rating: 0 to 100 scale; for Plant response rating, Wheat: 0 to 100 scale where 0 is no effect and 100 is complete control
In short: (§2)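 Planting was into mixed loam soil and sand; preemergence treatment followed as a directed soil spray. Concurrently, emerged plants (one- to two-leaf, 2–10 cm) received postemergence applications of identically formulated compound (non-phytotoxic solvent, surfactant). After approximately ten days under greenhouse conditions, injury was judged by eye against untreated plants.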

corn = assay: Test A pre-/postemergence greenhouse test; assay type: in vivo, Zea mays; conditions: for Corn plant response rating: 0 to 100 scale; for Plant response rating, Corn: 0 to 100 scale where 0 is no effect and 100 is complete control
In short: as §2

pigweed = assay: Test C pre-/postemergence test; assay type: in vivo, Amaranthus retroflexus; conditions: Preemergence; for Pigweed plant response rating: 62 g ai/ha, scale 0 to 100; for Plant response rating, Pigweed: 31 g ai/ha, scale 0 to 100 (0 no effect, 100 complete control)
In short: as §1

crabgrass = assay: Test A pre-/postemergence greenhouse test; assay type: in vivo, Digitaria sanguinalis; conditions: for Crabgrass, Large plant response rating: 0 to 100 scale; for Plant response rating, Crabgrass, Large: 0 to 100 scale where 0 is no effect and 100 is complete control
In short: as §2

bermudagrass = assay: Test C pre-/postemergence test; assay type: in vivo, Cynodon dactylon; conditions: for Plant response rating, Bermudagrass: 31 g ai/ha; for Plant response rating (0 to 100), Bermudagrass: 250 g ai/ha
In short: as §1

giant foxtail = assay: Test A pre-/postemergence greenhouse test; assay type: in vivo, Setaria faberi; conditions: for Foxtail, Giant plant response rating: 0 to 100 scale; for Plant response rating, Foxtail, Giant: 0 to 100 scale where 0 is no effect and 100 is complete control
In short: as §2

morningglory [3] = assay: Test A pre-/postemergence greenhouse test; assay type: in vivo, Ipomoea spp.; conditions: for Morningglory plant response rating: 0 to 100 scale; for Plant response rating, Morningglory: 0 to 100 scale where 0 is no effect and 100 is complete control
In short: as §2

wheat [4] = assay: Test C pre-/postemergence test; assay type: in vivo, Triticum aestivum; conditions: Preemergence; for Wheat plant response rating: 62 g ai/ha, scale 0 to 100; for Plant response rating, Wheat: 31 g ai/ha, scale 0 to 100 (0 no effect, 100 complete control)
In short: as §1

[5] = system: common (oilseed) sunflower; assay: Test C pre-/postemergence test; assay type: in vivo, Helianthus annuus; conditions: Preemergence; for Sunflower plant response rating: 62 g ai/ha, scale 0 to 100; for Plant response rating, Sunflower: 31 g ai/ha, scale 0 to 100 (0 no effect, 100 complete control)
In short: as §1

umbrella sedge = assay: Test C flooded paddy test; assay type: in vivo, Cyperus difformis; conditions: Flood
In short: (§3)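 Test compounds are applied straight into paddy water held 3 cm above the soil surface, with that flood maintained for the whole test. After 13 to 15 days in the greenhouse, each species is scored visually relative to controls.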

barnyardgrass = assay: Test C flooded paddy test; assay type: in vivo, Echinochloa crus-galli; conditions: Flood
In short: as §3

Italian ryegrass = assay: Test C pre-/postemergence test; assay type: in vivo, Lolium multiflorum; conditions: Preemergence; for Ryegrass, Italian plant response rating: 62 g ai/ha, scale 0 to 100; for Plant response rating, Ryegrass, Italian: 31 g ai/ha, scale 0 to 100 (0 no effect, 100 complete control)
In short: as §1

soybean = assay: Test C pre-/postemergence test; assay type: in vivo, Glycine max; conditions: Preemergence; for Soybean plant response rating: 62 g ai/ha, scale 0 to 100
In short: as §1

[6] = Postemergence, 125 g ai/ha, 0 is no effect, 100 is complete control
[7] = Postemergence, 500 g ai/ha, 0 is no effect, 100 is complete control
[8] = Preemergence, 125 g ai/ha, 0 no effect, 100 complete control
[9] = 62 g ai/ha, Preemergence, scale 0 to 100 (0 no effect, 100 complete control)
[10] = Preemergence, scale 0 to 100 (0 no effect, 100 complete control)
[11] = preemergence, 125 g ai/ha, scale 0 (no effect) to 100 (complete control)
[12] = 31 g ai/ha, scale 0 to 100 (0 no effect, 100 complete control)
[13] = 62 g ai/ha, scale 0 to 100, 0 no effect, 100 complete control, 13 to 15 days
[14] = 125 g ai/ha, scale 0 to 100, 0 no effect, 100 complete control, 13 to 15 days
[15] = 250 g ai/ha, scale 0 to 100, 0 no effect, 100 complete control, 13 to 15 days
[16] = 250 g ai/ha, scale 0 to 100 (0 no effect, 100 complete control)

CC(c1c(C(F)(F)F)nn(C)c1OC(F)F)S(=O)(=O)c1cc(C(C)(C)C)cc[n+]1[O-] (racemic) [Compound 26]
Galium plant response rating (catchweed bedstraw): 85
Plant response rating, Galium (catchweed bedstraw): 50
Plant response rating (0 to 100), Galium (catchweed bedstraw): 100
Morningglory plant response rating (morningglory [1]): 80
Nutsedge, Yellow plant response rating (yellow nutsedge): 50
Plant response rating, Nutsedge, Yellow (yellow nutsedge): 0
Goosegrass plant response rating (Goosegrass): 98
Plant response rating, Goosegrass (Goosegrass): 90
Plant response rating (0 to 100), Goosegrass (Goosegrass): 100
Wheat plant response rating (wheat [2]; [6]): 10
Wheat plant response rating (wheat [2]; [7]): 40
Wheat plant response rating (wheat [2]; [8]): 20
Plant response rating, Wheat (wheat [2]; Preemergence, 500 g ai/ha): 70
Corn plant response rating (corn; [6]): 0
Corn plant response rating (corn; [7]): 0
Corn plant response rating (corn; [8]): 20
Plant response rating, Corn (corn; Preemergence, 500 g ai/ha): 50
Pigweed plant response rating (pigweed): 100
Plant response rating, Pigweed (pigweed): 85
Crabgrass, Large plant response rating (crabgrass; [6]): 20
Crabgrass, Large plant response rating (crabgrass; [7]): 40
Crabgrass, Large plant response rating (crabgrass; [8]): 90
Plant response rating, Crabgrass, Large (crabgrass; Preemergence, 500 g ai/ha): 100
Bermudagrass plant response rating (bermudagrass; [9]): 100
Plant response rating, Bermudagrass (bermudagrass; [10]): 80
Plant response rating (0 to 100), Bermudagrass (bermudagrass; Preemergence): 100
Bermudagrass plant response rating (bermudagrass; [11]): 100
Foxtail, Giant plant response rating (giant foxtail; [6]): 0
Foxtail, Giant plant response rating (giant foxtail; [7]): 30
Foxtail, Giant plant response rating (giant foxtail; [8]): 90
Plant response rating, Foxtail, Giant (giant foxtail; Preemergence, 500 g ai/ha): 100
Morningglory plant response rating (morningglory [3]; [6]): 20
Morningglory plant response rating (morningglory [3]; [7]): 30
Morningglory plant response rating (morningglory [3]; [8]): 30
Plant response rating, Morningglory (morningglory [3]; Preemergence, 500 g ai/ha): 100
Wheat plant response rating (wheat [4]): 0
Plant response rating, Wheat (wheat [4]): 0
Sunflower plant response rating [5]: 0
Plant response rating, Sunflower [5]: 0
Plant response rating, Sedge, Umbrella (umbrella sedge; [12]): 70
Plant response rating, Sedge, Umbrella (umbrella sedge; [13]): 80
Plant response rating, Sedge, Umbrella (umbrella sedge; [14]): 95
Plant response rating, Sedge, Umbrella (umbrella sedge; [15]): 95
Plant response rating, Barnyardgrass (barnyardgrass; [12]): 0
Plant response rating, Barnyardgrass (barnyardgrass; [13]): 0
Plant response rating, Barnyardgrass (barnyardgrass; [14]): 20
Plant response rating, Barnyardgrass (barnyardgrass; [16]): 80
Ryegrass, Italian plant response rating (Italian ryegrass): 65
Plant response rating, Ryegrass, Italian (Italian ryegrass): 0
Soybean plant response rating (soybean): 0
Plant response rating, Soybean (soybean; [12]): 0

Cn1nc(C(F)(F)F)c(C[S+]([O-])c2cccc[n+]2[O-])c1OCC(F)(F)F (racemic) [Compound 28]
Galium plant response rating (catchweed bedstraw): 100
Plant response rating, Galium (catchweed bedstraw): 100
Plant response rating (0 to 100), Galium (catchweed bedstraw): 100
Morningglory plant response rating (morningglory [1]): 100
Plant response rating, Morningglory (morningglory [1]; [12]): 40
Nutsedge, Yellow plant response rating (yellow nutsedge): 80
Plant response rating, Nutsedge, Yellow (yellow nutsedge): 80
Goosegrass plant response rating (Goosegrass): 100
Plant response rating, Goosegrass (Goosegrass): 100
Plant response rating (0 to 100), Goosegrass (Goosegrass): 100
Wheat plant response rating (wheat [2]; [6]): 60
Wheat plant response rating (wheat [2]; [7]): 70
Wheat plant response rating (wheat [2]; [8]): 70
Plant response rating, Wheat (wheat [2]; Preemergence, 500 g ai/ha): 100
Corn plant response rating (corn; [6]): 60
Corn plant response rating (corn; [7]): 70
Corn plant response rating (corn; [8]): 0
Plant response rating, Corn (corn; Preemergence, 500 g ai/ha): 80
Pigweed plant response rating (pigweed): 100
Plant response rating, Pigweed (pigweed): 100
Crabgrass, Large plant response rating (crabgrass; [6]): 80
Crabgrass, Large plant response rating (crabgrass; [7]): 90
Crabgrass, Large plant response rating (crabgrass; [8]): 100
Plant response rating, Crabgrass, Large (crabgrass; Preemergence, 500 g ai/ha): 100
Bermudagrass plant response rating (bermudagrass; [9]): 100
Plant response rating, Bermudagrass (bermudagrass; [10]): 100
Plant response rating (0 to 100), Bermudagrass (bermudagrass; Preemergence): 100
Bermudagrass plant response rating (bermudagrass; [11]): 100
Foxtail, Giant plant response rating (giant foxtail; [6]): 90
Foxtail, Giant plant response rating (giant foxtail; [7]): 90
Foxtail, Giant plant response rating (giant foxtail; [8]): 100
Plant response rating, Foxtail, Giant (giant foxtail; Preemergence, 500 g ai/ha): 100
Morningglory plant response rating (morningglory [3]; [6]): 60
Morningglory plant response rating (morningglory [3]; [7]): 80
Morningglory plant response rating (morningglory [3]; [8]): 60
Plant response rating, Morningglory (morningglory [3]; Preemergence, 500 g ai/ha): 90
Wheat plant response rating (wheat [4]): 40
Plant response rating, Wheat (wheat [4]): 0
Sunflower plant response rating [5]: 85
Plant response rating, Sunflower [5]: 50
Plant response rating, Sedge, Umbrella (umbrella sedge; [12]): 75
Plant response rating, Sedge, Umbrella (umbrella sedge; [13]): 95
Plant response rating, Sedge, Umbrella (umbrella sedge; [14]): 100
Plant response rating, Sedge, Umbrella (umbrella sedge; [15]): 100
Plant response rating, Barnyardgrass (barnyardgrass; [12]): 0
Plant response rating, Barnyardgrass (barnyardgrass; [13]): 20
Plant response rating, Barnyardgrass (barnyardgrass; [14]): 65
Plant response rating, Barnyardgrass (barnyardgrass; [16]): 85
Ryegrass, Italian plant response rating (Italian ryegrass): 85
Plant response rating, Ryegrass, Italian (Italian ryegrass): 80
Soybean plant response rating (soybean): 95
